Molecules are shown by their SMILES. Where two headings read alike, the source gives them in different places. Where only a bound is given, the exact number is not on record here.

In assay [1] the target is T1, other KAR and AMPAR subunits.
T1 construct: Ki values at other KAR and AMPAR subunits (all subunits except those named); other: estimated
As to the kind of experiment: Radioligand binding, remaining subunits stated collectively, Example 2. The following applies: estimated; read-out: Ki values at other KAR and AMPAR subunits (all subunits except those named). On the procedure: (§1) Radioligand binding. Membrane preparations from HEK-293-T/17 cells were prepared and used in radioligand binding assays as described previously (Sanders et al., 2005). Unlabeled analogs were used to displace [3H]kainate (10-20 nM, PerkinElmer Life and Analytical Sciences, Boston, Mass.) or [3H]AMPA (20 nM, PerkinElmer Life and Analytical Sciences, Boston, Mass.) from KARs and AMPARs, respectively. Nonspecific binding was determined in the presence of 1 mM glutamate. After 1 hour incubation at 4° C., samples were harvested by rapid filtration onto Whatman GF/C membranes. Upon addition of scintillation fluid, membranes were incubated for 1 hour at room temperature. A Beckman LS5000TD scintillation counter was used for quantification (Beckman Coulter Inc., Fullerton, Calif.). Data were plotted and fit with a one-site competition curve with fixed minima and maxima using Prism 4 (GraphPad Software, Inc). Ki's were calculated with the Cheng-Prusoff equation using the determined IC5o values and the radioligand Kd. Data were plotted and fit with a one-site competition curve with fixed minima (0) and maxima (100) (Prism4, GraphPad Software, Inc.). Correlation analysis was performed with these binding data and the seizure activity of each analog, represented as ED50 values.
(§2) The pharmacological profiles of the Group I analogs, 8-deoxy-neoDH and 9-deoxyneoDH, were analyzed initially in radioligand binding experiments with expressed recombinant AMPA and kainate receptor subunits. Displacement of [3H]kainate from cell membranes with a range of analog concentrations yielded IC50 values that were then used to calculate Ki values for each analog/receptor combination. Both Group 1 analogs retained high affinity only for GluR5-2a KAR subunits (FIG. 8A). […] Weak binding to other KAR and AMPAR subunits was observed, with all Ki values estimated at >10 μM (n=3-5; Table 3, FIG. 8A).
(§3) For comparison, the Ki values for neoDH and MSVIII-19 are included in the table (Sanders et al., 2005). Removal of the C9 hydroxyl eliminated binding to all receptor subunits (Ki values estimated at >100 μM), with the exception of GluR5-2a KARs.

For a further assay, the system named is mice. As to the kind of experiment: Seizure (convulsant) activity after i.c.v. injection. In kind it is in vivo.
Assay [2] has as its system other KAR and AMPAR subunits. The assay can be described thus: Radioligand binding, remaining subunits stated collectively, Example 2. On the procedure: as §1, §2, §3
The target of the next assay is T2, GluR6 (Rattus norvegicus, UniProt P42260).
T2 construct: expressed in transfected cells; HEK 293 (patch clamp)
T2 sequence (P42260 32-908): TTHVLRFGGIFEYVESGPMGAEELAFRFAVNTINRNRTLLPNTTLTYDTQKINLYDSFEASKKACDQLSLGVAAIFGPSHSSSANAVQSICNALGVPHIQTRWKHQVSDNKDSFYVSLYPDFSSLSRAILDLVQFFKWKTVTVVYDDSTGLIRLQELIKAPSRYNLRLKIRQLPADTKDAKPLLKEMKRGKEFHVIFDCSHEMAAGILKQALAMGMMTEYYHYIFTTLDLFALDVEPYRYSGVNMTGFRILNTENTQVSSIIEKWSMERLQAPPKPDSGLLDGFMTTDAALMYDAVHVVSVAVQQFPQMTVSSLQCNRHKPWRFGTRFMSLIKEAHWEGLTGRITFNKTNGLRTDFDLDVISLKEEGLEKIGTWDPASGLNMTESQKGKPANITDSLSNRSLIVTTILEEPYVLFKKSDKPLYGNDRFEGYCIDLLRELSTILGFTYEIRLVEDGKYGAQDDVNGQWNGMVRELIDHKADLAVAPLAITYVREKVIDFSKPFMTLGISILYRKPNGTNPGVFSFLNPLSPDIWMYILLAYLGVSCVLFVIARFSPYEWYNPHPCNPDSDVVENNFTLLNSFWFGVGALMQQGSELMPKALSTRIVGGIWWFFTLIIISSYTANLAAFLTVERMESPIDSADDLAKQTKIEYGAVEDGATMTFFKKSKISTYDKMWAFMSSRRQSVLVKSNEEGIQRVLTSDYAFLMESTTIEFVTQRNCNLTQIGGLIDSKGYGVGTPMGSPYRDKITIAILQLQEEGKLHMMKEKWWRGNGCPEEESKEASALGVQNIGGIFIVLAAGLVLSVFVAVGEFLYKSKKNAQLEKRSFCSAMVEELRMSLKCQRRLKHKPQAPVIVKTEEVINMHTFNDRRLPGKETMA
The assay can be described thus: Radioligand displacement ([3H]kainate), Example 1. Format: binding. On the procedure: (§4) Dysiherbaine (DH) was used as a template for generating novel KAR ligands. (See FIG. 1.) These included 8-deoxy and 9-deoxy analogs of neodysiherbaine (neoDH). (See FIG. 2.) The binding of these analogs to glutamate receptors was assessed by radioligand binding as follows. Membrane preparations from COS-7 or HEK-T/17 cells were isolated 2-3 days after transfection. Displacement assays were performed as described previously (Swanson et al., NEURON 1997; 19:913-26). Unlabeled marine toxin analogs were used to displace [^3H]kainate or [^3H]AMPA (PerkinElmer) from kainate and AMPA receptors, respectively. (See FIG. 2 and Table 1.)
(§5) Non-specific binding was defined in the presence of 1 mM glutamate. The effect of these analogs on electrophysiology was assessed as follows. HEK 293 cells were transfected with receptor cDNAs in combination with eGFP cDNA. Patch-clamp recordings from transfected cells were made 24-72 hours later using a fast application system described previously (Swanson et al., NEURON 1997; 19:913-26). (See FIG. 3.)
(§6) Additional epimer analogs were generated. These included 4-epi-neodysiherbaine, 8-epi-neodysiherbaine, 9-epi-neodysiherbaine, and 8,9-epi-neodysiherbaine. (See FIG. 4.) The binding of these analogs to glutamate receptors was assessed by radioligand binding as described above. (See FIG. 4 and Table 2.)

In the next assay the target is T3, GluR7 (Rattus norvegicus, UniProt P42264).
T3 construct: expressed in transfected cells; host or cells: COS-7 or HEK-T/17
T3 sequence (P42264 32-919): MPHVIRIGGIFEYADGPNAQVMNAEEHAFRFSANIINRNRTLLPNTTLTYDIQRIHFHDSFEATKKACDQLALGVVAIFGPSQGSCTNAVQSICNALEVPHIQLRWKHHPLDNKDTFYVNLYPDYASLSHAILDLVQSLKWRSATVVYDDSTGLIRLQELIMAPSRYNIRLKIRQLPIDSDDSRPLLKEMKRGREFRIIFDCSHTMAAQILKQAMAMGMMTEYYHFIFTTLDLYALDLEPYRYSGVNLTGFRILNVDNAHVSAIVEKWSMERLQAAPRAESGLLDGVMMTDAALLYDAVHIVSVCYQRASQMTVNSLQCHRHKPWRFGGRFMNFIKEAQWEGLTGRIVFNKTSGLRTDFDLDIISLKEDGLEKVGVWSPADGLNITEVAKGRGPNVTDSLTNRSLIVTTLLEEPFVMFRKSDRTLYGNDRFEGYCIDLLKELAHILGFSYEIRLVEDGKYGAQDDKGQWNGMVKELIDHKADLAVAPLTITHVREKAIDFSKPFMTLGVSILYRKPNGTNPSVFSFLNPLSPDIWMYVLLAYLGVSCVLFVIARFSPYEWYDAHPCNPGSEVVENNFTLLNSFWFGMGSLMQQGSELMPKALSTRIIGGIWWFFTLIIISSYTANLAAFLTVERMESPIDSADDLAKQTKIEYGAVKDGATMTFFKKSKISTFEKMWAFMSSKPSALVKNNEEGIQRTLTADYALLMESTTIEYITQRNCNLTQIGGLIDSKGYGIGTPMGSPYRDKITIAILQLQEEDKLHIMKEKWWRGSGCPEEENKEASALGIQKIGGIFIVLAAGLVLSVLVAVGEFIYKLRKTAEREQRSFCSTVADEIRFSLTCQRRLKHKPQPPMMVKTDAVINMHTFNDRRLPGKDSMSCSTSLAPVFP
The assay can be described thus: Radioligand displacement ([3H]kainate), Example 1. Format: binding. The procedure:
as §4, §5, §6
In general terms: Loss of bound radioactivity is the signal in a displacement assay; it reports binding, not function.

The target of a further assay is T4, GluR5 (Rattus norvegicus, UniProt P22756).
T4 construct: expressed in transfected cells; HEK 293 (patch clamp)
T4 sequence (P22756 with tags, fused parts or gaps isoform P22756-2): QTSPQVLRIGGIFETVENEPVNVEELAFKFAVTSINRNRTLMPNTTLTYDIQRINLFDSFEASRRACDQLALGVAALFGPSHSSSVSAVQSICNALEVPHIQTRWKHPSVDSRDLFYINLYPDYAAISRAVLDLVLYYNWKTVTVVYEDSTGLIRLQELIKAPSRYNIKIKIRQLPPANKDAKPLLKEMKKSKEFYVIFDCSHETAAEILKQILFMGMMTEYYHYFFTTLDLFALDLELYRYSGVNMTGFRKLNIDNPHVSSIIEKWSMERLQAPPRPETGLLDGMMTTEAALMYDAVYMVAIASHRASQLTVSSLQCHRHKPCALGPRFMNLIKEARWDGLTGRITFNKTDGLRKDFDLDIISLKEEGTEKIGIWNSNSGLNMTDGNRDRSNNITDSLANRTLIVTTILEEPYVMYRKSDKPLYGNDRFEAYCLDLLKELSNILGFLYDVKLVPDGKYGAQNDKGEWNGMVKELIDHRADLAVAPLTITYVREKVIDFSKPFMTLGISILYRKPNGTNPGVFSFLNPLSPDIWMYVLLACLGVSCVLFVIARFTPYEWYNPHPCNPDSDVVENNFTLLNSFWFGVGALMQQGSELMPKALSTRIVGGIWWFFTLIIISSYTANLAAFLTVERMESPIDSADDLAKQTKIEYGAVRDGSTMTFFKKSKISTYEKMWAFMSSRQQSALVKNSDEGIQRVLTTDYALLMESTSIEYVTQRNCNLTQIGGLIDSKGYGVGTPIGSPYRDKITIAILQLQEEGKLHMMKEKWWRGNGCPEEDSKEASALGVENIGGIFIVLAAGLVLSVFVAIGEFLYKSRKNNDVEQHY
As to the kind of experiment: Radioligand displacement ([3H]kainate), Example 1. Format: binding. On the procedure:
as §4, §5, §6

Another assay addresses T5, KA2 (Rattus norvegicus, UniProt Q63273).
T5 construct: expressed in transfected cells; host or cells: HEK-293-T/17
T5 sequence (Q63273 15-979): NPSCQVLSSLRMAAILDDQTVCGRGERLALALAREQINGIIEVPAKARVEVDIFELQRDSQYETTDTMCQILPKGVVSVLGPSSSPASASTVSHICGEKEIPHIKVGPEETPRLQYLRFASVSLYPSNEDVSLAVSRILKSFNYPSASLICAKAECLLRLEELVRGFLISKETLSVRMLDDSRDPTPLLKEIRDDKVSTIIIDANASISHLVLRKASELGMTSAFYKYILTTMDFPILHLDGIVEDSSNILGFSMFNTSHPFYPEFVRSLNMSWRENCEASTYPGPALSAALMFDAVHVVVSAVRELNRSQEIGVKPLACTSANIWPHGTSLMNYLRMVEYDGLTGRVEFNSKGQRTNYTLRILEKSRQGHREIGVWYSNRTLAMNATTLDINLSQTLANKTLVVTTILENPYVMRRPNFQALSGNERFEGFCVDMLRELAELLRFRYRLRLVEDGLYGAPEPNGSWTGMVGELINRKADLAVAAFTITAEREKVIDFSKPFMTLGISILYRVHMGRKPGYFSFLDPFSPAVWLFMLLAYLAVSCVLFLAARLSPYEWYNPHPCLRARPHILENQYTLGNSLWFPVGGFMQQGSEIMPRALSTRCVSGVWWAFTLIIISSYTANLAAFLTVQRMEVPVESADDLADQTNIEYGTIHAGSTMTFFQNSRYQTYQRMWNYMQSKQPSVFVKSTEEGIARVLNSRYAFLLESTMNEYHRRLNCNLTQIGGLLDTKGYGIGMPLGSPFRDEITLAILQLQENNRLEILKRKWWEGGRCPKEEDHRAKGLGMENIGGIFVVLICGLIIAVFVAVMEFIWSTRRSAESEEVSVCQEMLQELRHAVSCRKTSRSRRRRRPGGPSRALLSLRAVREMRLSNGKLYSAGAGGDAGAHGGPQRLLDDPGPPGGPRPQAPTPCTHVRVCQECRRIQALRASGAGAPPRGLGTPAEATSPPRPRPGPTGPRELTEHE
The assay can be described thus: Radioligand displacement ([3H]kainate), Example 1. In kind it is binding. The procedure:
as §4, §5, §6

[3] abbreviates: Tables 1-2, read-out: GluR6 binding affinity (displacement of [3H]kainate).
[4] abbreviates: Tables 1-2, read-out: GluR7 binding affinity (displacement of [3H]kainate).
[5] abbreviates: Tables 1-2, read-out: KA2 binding affinity (displacement of [3H]kainate).
The mark [6] stands for this setting: Tables 1-2, membranes of transfected COS-7 or HEK-T/17 cells, read-out: GluR5 binding affinity (displacement of [3H]kainate).

As to `N[C@@H](C[C@@]1(C(=O)O)CC2OCC(O)C(O)C2O1)C(=O)O` (single isomer, unassigned) [2,4-epi-neoDH, 2,4-epi-neodysiherbaine], the Ki in assay [1] was over 100 µM.

On to `N[C@@H](C[C@@]1(C(=O)O)CC2OCC(O)C(O)C2O1)C(=O)O` (single isomer, unassigned) [4-epi-neoDH, 4-epi-neodysiherbaine], for which, in the assay with mice (i.c.v. injection, mice), the “ED50, fold lower than that of 2,4-epi-neoDH” value was over 6 fold. The “binding to other KA and AMPAR subunits” value in assay [2] is given as “weakly displaced radioligand”.

Consider `NC(CC1(C(=O)O)CC2OCC(O)C(O)C2O1)C(=O)O` (stereo not drawn) [8,9-epi-neoDH, 8,9-epi-neodysiherbaine], for which the “convulsive behavior” value with mice (high doses) is “fails to elicit convulsive behavior even at high doses”. In addition, the “binding to other KA and AMPAR subunits” value in assay [2] is reported as “effectively eliminated affinity for all receptor subunits”. Besides, the Ki is over 100 µM at GluR6 (setting [3]); over 100 µM at GluR7 (setting [4]); 48 µM at GluR5 (Table 2, read-out: GluR5 binding affinity (displacement of [3H]kainate)); over 100 µM on KA2 (setting [5]).

With `N[C@@H](C[C@]1(C(=O)O)C[C@H]2OC[C@@H](O)C[C@H]2O1)C(=O)O` [8-deoxy-neoDH], the Ki is over 10 µM in assay [1]; 76 µM at GluR6; 21 µM at GluR7; 0.0011 µM at GluR5; 36 µM at KA2.

Regarding `NC(CC1(C(=O)O)CC2OCC(O)C(O)C2O1)C(=O)O` (stereo not drawn) [8-epi-neoDH, 8-epi-neodysiherbaine], the Ki on GluR6 (setting [3]) is 22 µM; on GluR5 (setting [6]), 0.034 µM; on KA2 (setting [5]), over 100 µM.

In the case of `N[C@@H](C[C@]1(C(=O)O)C[C@H]2OCC[C@@H](O)[C@H]2O1)C(=O)O` [9-deoxy-neoDH], the Ki is over 100 µM in assay [1]; over 100 µM at GluR6 (setting [3]); over 100 µM at GluR7 (setting [4]); 0.168 µM at GluR5 (setting [6]); over 100 µM at KA2 (setting [5]).

As to `NC(CC1(C(=O)O)CC2OCC(O)C(O)C2O1)C(=O)O` (stereo not drawn) [9-epi-neoDH, 9-epi-neodysiherbaine], the “binding to other KA and AMPAR subunits” value in assay [2] was “inactive at other subunits”. Also, the Ki at GluR6 (setting [3]) is over 100 µM; on GluR7 (setting [4]), over 100 µM; on GluR5 (setting [6]) it was 0.296 µM; at KA2 (setting [5]) it was over 100 µM.

The record behind these values is patent US7973075B2, “Kainate receptor-selective epimeric analogs of dysiherbaine” (priority 2007, dated 2011).
